“And” between values parts separate entries of the source, which are not always exact repeats. Identical values can stand only once. Like-named read-outs stand apart in the source and are kept apart here.
Experiments:
[1] = tested on: MCF-7 cells implanted in zebrafish embryos; experiment: Zebrafish xenograft assay; assay type: in vivo; conditions: 2.5, 5, 7.5 μΜ, 72 h
Procedure: To examine the in vivo anti-tumor and anti-metastasis potency of 7m, we implanted Cell-Tracker Red CMTPX-labeled MCF-7 cells into the yolk of Tg (flk: EGFP) 48 hpf embryos, and different concentrations of 7m (2.5, 5, 7.5 μΜ) were added. The intensity of the red fluorescence is proportional to the size of the xenograft tumor. After 72 h, the effects of 7m on the tumor mass development and cancer cell metastasis were assessed by fluorescence microscopy. […] Without drug treatment, MCF-7 cells disseminated and migrated widely away from the original area, and some tumor cells even migrated into the blood vessels of the zebrafish tail at 72 hpf.
The tumor cells MCF-7 were labeled with Red CMTPX, and then the labeled tumor cells were digested and resuspended. A hundred labeled tumor cells per 1 nl were injected into the zebrafish embryos developed for 48 h. The zebrafish injected with tumor cells were incubated in an incubator at 28.5°C for about 1 h under the action of different concentrations of 7m and then were transferred to an incubator at 35°C.

[2] = tested on: MCF-7, U937, HepG2 and MGC-803 cells; experiment: Antiproliferative activity, cancer cell panel (text summaries); assay type: cell-based, human; conditions: U937, MCF7, HepG2; read-out: IC50 against three cancer cells
Procedure: The synthesized compounds were first evaluated for their cytotoxic effect on MCF-7 (human breast adenocarcinoma), U937 (histiocytic lymphoma cancer), HepG2 (human liver cancer) cells, and MGC-803 (human gastric cancer) using the SRB and CCK-8 assay. As reference compounds CA-4 and colchicine were included.
The primary tumor cells were purchased from a professional biomedical company. First, the primary tumor cells were incubated in a cell culture incubator at 37°C and 5% CO2. After the cell fusion reached 85%–95%, subculture was performed, and the tumor cells obtained at this time were used for subsequent related experiments. The CCK-8 method was used to inhibit the proliferation of U937 tumor cells, and the SRB method was used to inhibit the proliferation of MCF7 and HepG2 tumor cells.
Cells were distributed into 96-well plates with a density of 3 × 10^3–4 × 10^3 cells per well and incubated for 24 h in a 5% CO2 incubator at 37°C, followed by treatment with study compounds at different concentrations at 37°C for 72 h. One hundred microliters of 10% (w/v) trichloroacetic acid was added to each well, fixed at 4°C for 30 min, and dried at 65°C. Then 100 μl of 0.4% SRB was added to each well and stained on a shaker for 20 min at room temperature. The excess dye solution was washed with newly prepared 1% glacial acetic acid and dried at 65°C. One hundred fifty microliters of 10 mM unbuffered Trisbase was added to each well of the plate and shaken for 5 min to dissolve the dye. The microplate reader measured the optical density (OD) at a wavelength of 560 nm.
The cells in the logarithmic growth phase were seeded in a 96-well plate at 8,000/well, and the drug-containing medium and cell suspension were added to the well. Three wells were added with the blank medium as the blank group. The 96-well plate was incubated for 72 h in a 37°C, 5% CO2 incubator. The 10 μl of CCK-8 dye solution was added to each well, and the incubation continued for 3–4 h.

[3] = tested on: Cyclin B1, p-Cdc2 and P21 in MCF-7 cells; experiment: Western blot of cell cycle-related proteins; assay type: cell-based, human; conditions: for P21, band quantification / cyclinB1, band quantification / pcdc2, band quantification: two runs
Procedure: Cell cycle regulatory proteins Cyclin B1 and Cdc2 are key proteins to control the transition from G2 to M phase through increasing the G2/M intracellular fraction in cell cycle distribution. Some agents produce cell cycle arrest by decreasing Cyclin B1 level ([Xiao et al., 2018]), while others increase the Cyclin B1 level, depending on the cell types ([Zhang et al., 2016]).
MCF-7 cells were seeded into […] dishes at a density of 6 × 10^5/dish and incubated for 24 h. After treating the cells with the compound 7m, the cells were cultured for 48 h and washed with PBS, and then the soluble and insoluble tubulin fractions were collected. Protein quantification was performed by BCA Protein Concentration Determination Kit following centrifugation at 12,000 rpm for 10 min at 4°C. Cell lysates were separated by SDS-PAGE at 80 V constant voltage for 30–40 min. […] After 5% skim milk was blocked for 1 h, the primary antibody was added and incubated overnight before being washed three times with PBST. The secondary antibody was incubated for 2 h at room temperature the next day and subsequently washed three times with PBST. Then the signal was detected with ECL.

normal liver LO2 cells = experiment: Growth inhibition of normal cells; assay type: cell-based, human
[4] = tested on: intersegmental vessel (ISV) development, Tg (flk: EGFP) embryos; experiment: Anti-angiogenic effect on zebrafish embryos; assay type: in vivo
Description: Zebrafish embryo is a powerful model to study human diseases, and the transgenic zebrafish labeled with green fluorescent protein (GFP) in endothelial cells are always used to analyze angiogenesis activity in vivo ([Rocke et al., 2009]). Accordingly, we treated the transgenic Tg (flk: EGFP) embryos with different doses of 7m (0.5, 1, 2.5, 5 μΜ), and 30 hpf zebrafish was imaged by fluorescent microscopy to examine the effect on intersegmental vessel (ISV) development. […] When the concentration of 7m was elevated to 2.5 μΜ, the […] effect was more pronounced as evidenced by the 3.5- to 4-fold reduction in the number of SIVs.
The transgenic zebrafish Tg (flk: EGFP) embryos were paired normally and collected into a six-well plate (n = 30/well), then 1 ml of aquaculture water (0.2 g/L distilled water instant sea salt) was added and were raised at 28.5°C. When the zebrafish embryos developed to 12 hpf, the indicated concentrations of 7m were added, and 30 embryos were selected for each concentration gradient and incubated at 28.5°C to 30 hpf. At 30 hpf, the zebrafish embryos were imaged and photographed under a fluorescence microscope to observe the growth of blood vessels in the body, and the number of intersegmental blood vessels (ISV) was recorded.

HepG2 = experiment: Antiproliferative activity, SRB assay; assay type: cell-based, human
Summary of the method: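 Cells seeded at 3 × 10^3–4 × 10^3 per well, grown 24 h, then exposed to compounds at various concentrations for 72 h at 37 °C. TCA-fixed cells stained with 0.4% SRB; bound dye dissolved in 10 mM Tris base and OD read at 560 nm.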

For “3-(benzofuran-6-yl)-2-methyl-1-(3,4,5-trimethoxyphenyl)prop-2-en-1-one [Compound 7m]”, which “fluorescence intensity and tumor size of MCF-7 cells vs vehicle” value [1] is on record?
Its value is “reduced the fluorescence intensity and tumor size”.

What about the “migration number of implanted MCF-7 cells” value [1] of the same substance?
Its value is “notably reduced in a dose-dependent manner”.

And the IC50 [2]?
Its IC50 is 0.07 to 0.183 µM.

And the “P21, band quantification” value ([3]; 100nM)?
Its value is 0.4949 and 0.5407.

And the “cyclinB1, band quantification” value ([3]; 100nM)?
The value was 1.376 and 1.378.

And the “pcdc2, band quantification” value ([3]; 100nM)?
The value was 0.4445 and 0.4619.

What about the “P21, band quantification” value ([3]; 200nM) of the same substance?
Its value is 0.4098 and 0.48.

And the “cyclinB1, band quantification” value ([3]; 200nM)?
The value was 1.5822 and 1.545.

And the “pcdc2, band quantification” value ([3]; 200nM)?
Its value is 0.4706 and 0.4291.

And the “P21, band quantification” value ([3]; 400nM)?
Its value is 0.006743 and 0.008008.

And the “cyclinB1, band quantification” value ([3]; 400nM)?
The value was 1.8972 and 1.928.

And the “pcdc2, band quantification” value ([3]; 400nM)?
Its value is 0.2956 and 0.3089.

And the “Cyclin B1 expression” value ([3]; 100, 200, 400 nM)?
Its value is “overexpressed”.

What about the p-Cdc2 protein level ([3]; 100, 200, 400 nM) of the same substance?
Its p-Cdc2 protein level is “dose-dependently decreased”.

What about the Selectivity ratio (normal liver LO2 cells; (IC50 human normal cells LO2)/(IC50 MCF7)) of the same substance?
Its Selectivity ratio is 4.9.

And the IC50 (normal liver LO2 cells; three single determinations, read-out: L02 (raw data of table 3, IC50))?
The IC50 was 0.885 µM and 0.871 µM and 0.914 µM.

What about the IC50 (normal liver LO2 cells; triplicate, read-out: IC50 ± SD, LO2) of the same substance?
Its IC50 is 0.89 ± 0.014 µM.

And the “number and length of SIVs vs vehicle control” value ([4]; 0.5 and 1 μΜ, 30 hpf)?
The value was “slightly reduced”.

What about the ISVs formations ([4]; doses ≥5 μM) of the same substance?
Its ISVs formations is “seriously impaired”.

And the “developmental toxicity in embryos” value ([4]; doses ≥5 μM)?
Its value is “developmental defects were observed”.

What about the IC50 (HepG2; 72 h, triplicate, mean ± SD, read-out: IC50 ± SD, HepG2) of the same substance?
The IC50 was 0.07 ± 0.001 µM.

And the IC50 (HepG2; supplement raw data of table 2, read-out: IC50(Hepg2))?
The IC50 was 0.0705 µM.

From PMC8652888, “Angiogenesis, Anti-Tumor, and Anti-Metastatic Activity of Novel α-Substituted Hetero-Aromatic Chalcone Hybrids as Inhibitors of Microtubule Polymerization” (Frontiers in Chemistry, 2021)
